How the values were obtained:
Details in all cases: human; call rule not given here
Hepatotoxicity [1] = assay: FDA HLAED, liver enzyme composite activity
Hepatotoxicity [2] = assay: FDA HLAED, gamma-glutamyl transferase (GGT) increase
Hepatotoxicity [3] = assay: FDA HLAED, alkaline phosphatase increase
Hepatotoxicity [4] = assay: FDA HLAED, serum glutamic oxaloacetic transaminase (SGOT) increase
Hepatotoxicity [5] = assay: FDA HLAED, serum glutamic pyruvic transaminase (SGPT) increase
Wherever GGT Increase - Index Value is given: reference of the scale not given here.

SMILES | Composite Activity - Active (Hepatotoxicity [1]) | Composite Activity - Marginal (Hepatotoxicity [1]) | Composite Activity - Score (Hepatotoxicity [1]) | GGT Increase - Activity Score (Hepatotoxicity [2]) | GGT Increase - Index Value (Hepatotoxicity [2]) | GGT Increase - Number of Reports (Hepatotoxicity [2]) | Alkaline Phosphatase Increase - Activity Score (Hepatotoxicity [3]) | Alkaline Phosphatase Increase - Index Value (Hepatotoxicity [3]) | Alkaline Phosphatase Increase - Number of Reports (Hepatotoxicity [3]) | SGOT Increase - Activity Score (Hepatotoxicity [4]) | SGOT Increase - Number of Reports (Hepatotoxicity [4]) | SGPT Increase - Activity Score (Hepatotoxicity [5]) | SGPT Increase - Number of Reports (Hepatotoxicity [5]) | Composite Activity - Active (Hepatotoxicity [1]; Liver) | Composite Activity - Marginal (Hepatotoxicity [1]; Liver) | Composite Activity - Score (Hepatotoxicity [1]; Liver) | SGOT Increase - Index Value (Hepatotoxicity [4]) | SGPT Increase - Index Value (Hepatotoxicity [5])
CN(C)CCC=C1c2ccccc2COc2ccccc21 [DOXEPIN] | 2 | 0 | Active | Active | 434.8 | < 4 | Active | 434.8 | < 4 |  |  |  |  |  |  |  |  | 
NC(=O)c1ncn([C@@H]2O[C@H](CO)[C@@H](O)[C@H]2O)n1 [RIBAVIRIN] | 0 | 0 | Inactive | Inactive |  | < 4 | Inactive |  | < 4 | Inactive | < 4 | Inactive | < 4 |  |  |  |  | 
NNCCc1ccccc1 [PHENELZINE] |  |  |  | Active | 4.9 | >= 4 |  |  |  | Active | >= 4 | Active | >= 4 | 3 | 0 | Active | 4.9 | 4.9
COC1=CC(=O)C[C@@H](C)[C@]12Oc1c(Cl)c(OC)cc(OC)c1C2=O [GRISEOFULVIN] | 4 | 0 | Active | Active | 5.5 | < 4 | Active | 5.5 | >= 4 | Active | >= 4 | Active | >= 4 |  |  |  | 5.5 | 6.9
CCC(=O)O[C@H]1[C@H](O[C@@H]2[C@@H](C)[C@H](O[C@H]3C[C@@](C)(OC)[C@@H](O)[C@H](C)O3)[C@@H](C)C(=O)O[C@H](CC)[C@@](C)(O)[C@H](O)[C@@H](C)C(=O)[C@H](C)C[C@@]2(C)O)O[C@H](C)C[C@@H]1N(C)C [ERYTHROMYCIN PROPIONATE] | 3 | 0 | Active |  |  |  | Active | 7.3 | >= 4 | Active | >= 4 | Active | >= 4 |  |  |  | 7.9 | 8.5
CC[C@H]1OC(=O)[C@H](C)[C@@H](O[C@H]2C[C@@](C)(OC)[C@@H](O)[C@H](C)O2)[C@H](C)[C@@H](O[C@@H]2O[C@H](C)C[C@H](N(C)C)[C@H]2O)[C@](C)(O)C[C@@H](C)C(=O)[C@H](C)[C@@H](O)[C@]1(C)O [ERYTHROMYCIN] | 3 | 0 | Active |  |  |  | Active | 7.3 | >= 4 | Active | >= 4 | Active | >= 4 |  |  |  | 7.9 | 8.5
Cn1cnc([N+](=O)[O-])c1Sc1ncnc2nc[nH]c12 [AZATHIOPRINE] |  |  |  | Marginally Active | 3.3 | >= 4 | Active | 4.5 | >= 4 | Active | >= 4 | Active | >= 4 | 3 | 1 | Active | 5 | 5.6
NC(=O)N1c2ccccc2C=Cc2ccccc21 [CARBAMAZEPINE] | 1 | 1 |  | Active | 4.4 | >= 4 | Marginally Active | 3.3 | >= 4 |  |  |  |  |  |  |  |  | 
CC(=O)CC(c1ccccc1)c1c(O)c2ccccc2oc1=O (stereo not drawn) [WARFARIN] | 0 | 3 |  |  |  |  | Marginally Active | No Shipping Units | >= 4 | Marginally Active | >= 4 | Marginally Active | >= 4 |  |  |  | No Shipping Units | No Shipping Units
Clc1cccc(Cl)c1N=C1NCCN1 [CLONIDINE] |  |  |  | Active | 9.5 | >= 4 | Active | 11.5 | >= 4 |  |  | Active | >= 4 | 2 | 0 | Active |  | 7.6
CCN(CC)CCOc1ccc(/C(=C(/Cl)c2ccccc2)c2ccccc2)cc1 [ENCLOMIPHENE] | 3 | 0 | Active | Active | 15.6 | >= 4 |  |  |  | Active | >= 4 | Active | >= 4 |  |  |  | 18.8 | 25
Nc1ccn([C@@H]2O[C@H](CO)[C@@H](O)[C@@H]2O)c(=O)n1 [CYTARABINE] |  |  |  |  |  |  | Active | 4.1 | >= 4 | Active | >= 4 | Active | >= 4 | 3 | 0 | Active | 6.1 | 4.1
CCOC(=O)CCC(=O)O[C@H]1[C@H](O[C@@H]2[C@@H](C)[C@H](O[C@H]3C[C@@](C)(OC)[C@@H](O)[C@H](C)O3)[C@@H](C)C(=O)O[C@H](CC)[C@@](C)(O)[C@H](O)[C@@H](C)C(=O)[C@H](C)C[C@@]2(C)O)O[C@H](C)C[C@@H]1N(C)C [ERYTHROMYCIN ETHYLSUCCINATE] | 3 | 0 | Active |  |  |  | Active | 7.3 | >= 4 | Active | >= 4 | Active | >= 4 |  |  |  | 7.9 | 8.5
